Assay results taken from patent US20260193239A1, “NOVEL COMPOUNDS” (Hoffmann-La Roche Inc., priority 2023, published 2026).

Assays:
[1] = biological target: T1, NLRP3 (Homo sapiens, UniProt Q96P20); assay: THP-1 cells pyroptosis assay; format: cell-based; set-up: Seed THP-1 cells (25,000 cells/well) containing 1.0 μg/ml LPS; host or cells: THP-1 cells, LPS-primed and nigericin-stimulated; conditions: 1 μg/ml LPS, nigericin 5 μM, resazurin readout
Experimental: The cells were routinely passaged and grown to confluency (~10^6 cells/ml). On the day of the experiment, THP-1 cells were harvested and resuspended into RPMI medium (without FBS). […] To this diluted cell solution was added LPS (Sigma #L4524) to give a 1 μg/ml Final Assay Concentration (FAC). 40 μl of the final preparation was aliquoted into each well of a 96-well plate. The plate thus prepared was used for compound screening.

[2] = biological target: T2, P-gp (Homo sapiens, UniProt P08183); assay: Transcellular P-gp assay; format: in vitro ADME; conditions: LLC-PK1 cells over-expressing human P-gp; for Papp: read-out: Permeation
T2 construct: expressed in transfected cells; host or cells: LLC-PK1 cells (porcine kidney epithelial cells)
T2 sequence (P08183 whole entry): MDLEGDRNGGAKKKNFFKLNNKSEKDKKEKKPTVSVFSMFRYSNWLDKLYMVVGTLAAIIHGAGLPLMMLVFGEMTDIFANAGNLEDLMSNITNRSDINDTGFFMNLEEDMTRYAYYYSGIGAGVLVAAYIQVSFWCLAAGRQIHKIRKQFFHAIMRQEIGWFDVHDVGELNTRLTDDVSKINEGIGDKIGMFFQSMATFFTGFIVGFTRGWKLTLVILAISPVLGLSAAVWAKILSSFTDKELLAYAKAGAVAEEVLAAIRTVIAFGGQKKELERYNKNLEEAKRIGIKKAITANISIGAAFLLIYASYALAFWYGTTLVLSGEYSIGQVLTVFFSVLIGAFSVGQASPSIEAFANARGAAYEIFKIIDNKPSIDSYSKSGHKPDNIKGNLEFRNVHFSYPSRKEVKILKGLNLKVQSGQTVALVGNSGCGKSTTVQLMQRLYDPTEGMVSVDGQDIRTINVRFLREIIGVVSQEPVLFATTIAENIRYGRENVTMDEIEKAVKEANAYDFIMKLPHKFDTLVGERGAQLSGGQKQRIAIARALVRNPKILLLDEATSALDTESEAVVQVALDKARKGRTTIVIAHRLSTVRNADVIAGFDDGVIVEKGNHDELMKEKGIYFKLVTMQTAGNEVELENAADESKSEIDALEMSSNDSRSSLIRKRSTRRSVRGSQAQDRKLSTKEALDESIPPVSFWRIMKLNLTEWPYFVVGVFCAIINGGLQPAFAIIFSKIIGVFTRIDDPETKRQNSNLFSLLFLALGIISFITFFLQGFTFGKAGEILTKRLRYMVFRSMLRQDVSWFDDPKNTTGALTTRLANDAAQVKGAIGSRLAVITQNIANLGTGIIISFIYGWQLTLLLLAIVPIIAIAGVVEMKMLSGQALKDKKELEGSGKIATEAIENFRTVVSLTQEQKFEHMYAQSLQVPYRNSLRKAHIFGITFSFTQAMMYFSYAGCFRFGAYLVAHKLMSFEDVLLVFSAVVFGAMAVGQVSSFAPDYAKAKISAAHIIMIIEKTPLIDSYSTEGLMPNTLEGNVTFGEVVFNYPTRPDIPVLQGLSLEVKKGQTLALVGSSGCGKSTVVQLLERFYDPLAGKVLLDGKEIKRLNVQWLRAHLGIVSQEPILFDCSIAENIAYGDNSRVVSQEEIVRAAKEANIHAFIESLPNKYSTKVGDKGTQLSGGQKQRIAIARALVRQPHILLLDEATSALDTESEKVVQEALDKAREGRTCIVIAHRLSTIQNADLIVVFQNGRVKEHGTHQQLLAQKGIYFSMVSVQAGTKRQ
Excerpt: The general assay uses transfected LLC-PK1 cells (porcine kidney epithelial cells) over-expressing human or mouse P-gp, cultured on 96 well semi-permeable filter membrane plates, where they form a polarized monolayer with tight junctions, and act as a barrier between the apical and basolateral compartment.
P-gp is expressed in the apical-facing membrane of the monolayer.
The tightness of the cell monolayer and functional activity of P-gp are confirmed by addition of a cell-impermeable marker, Lucifer yellow, and a reference P-gp substrate, edoxaban, respectively.

[3] = biological target: T1, NLRP3; assay: Human whole blood IL-1β release assay; format: cell-based; set-up: Human whole blood in Li-heparin tubes was obtained from healthy donors; from tissue; host or cells: human whole blood from healthy donors, LPS-primed and nigericin-stimulated; conditions: 1 μg/ml LPS, nigericin 10 μM, IL-1β by AlphaLisa
Excerpt: For systemic delivery, the ability to inhibit NLRP3 when the compounds are present within the bloodstream is of great importance. For this reason, the NLRP3 inhibitory activity of a number of compounds in human whole blood was investigated in accordance with the following protocol.
Human whole blood in Li-heparin tubes was obtained from healthy donors from a volunteer donor panel.

T1 sequence (Q96P20 whole entry): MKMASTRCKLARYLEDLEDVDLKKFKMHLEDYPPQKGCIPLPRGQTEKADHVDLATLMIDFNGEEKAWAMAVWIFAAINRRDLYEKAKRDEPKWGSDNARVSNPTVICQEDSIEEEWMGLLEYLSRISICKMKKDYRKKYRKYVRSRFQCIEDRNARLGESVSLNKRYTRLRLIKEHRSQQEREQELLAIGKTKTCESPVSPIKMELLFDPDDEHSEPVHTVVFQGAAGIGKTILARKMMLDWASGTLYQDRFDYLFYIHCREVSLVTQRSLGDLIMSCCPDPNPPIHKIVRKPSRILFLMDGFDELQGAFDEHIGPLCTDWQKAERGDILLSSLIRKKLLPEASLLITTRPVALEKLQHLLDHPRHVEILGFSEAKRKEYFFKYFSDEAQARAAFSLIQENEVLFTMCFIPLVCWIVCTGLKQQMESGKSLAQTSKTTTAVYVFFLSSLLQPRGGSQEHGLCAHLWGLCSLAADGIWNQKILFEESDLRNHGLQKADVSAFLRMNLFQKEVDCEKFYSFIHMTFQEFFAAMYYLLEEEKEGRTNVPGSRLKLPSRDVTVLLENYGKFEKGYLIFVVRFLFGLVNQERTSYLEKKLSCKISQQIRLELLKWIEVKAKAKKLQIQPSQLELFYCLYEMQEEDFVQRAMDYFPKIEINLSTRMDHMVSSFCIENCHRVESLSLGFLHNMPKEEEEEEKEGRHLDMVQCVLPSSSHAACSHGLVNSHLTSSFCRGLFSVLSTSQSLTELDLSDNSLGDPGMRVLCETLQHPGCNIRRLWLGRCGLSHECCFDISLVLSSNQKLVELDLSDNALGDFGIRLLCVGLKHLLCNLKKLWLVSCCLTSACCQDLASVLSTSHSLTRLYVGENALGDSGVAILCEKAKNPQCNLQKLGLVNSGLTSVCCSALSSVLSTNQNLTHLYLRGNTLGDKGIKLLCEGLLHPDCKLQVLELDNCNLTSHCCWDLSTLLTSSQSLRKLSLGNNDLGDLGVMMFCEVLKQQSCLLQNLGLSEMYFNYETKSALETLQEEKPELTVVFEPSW

| SMILES | IC50 [1] [µM] | efflux ratio [2] | Papp [2] [×10⁻⁶ cm/s] | IC50 [3] [µM] | Permeation [2] [×10⁻⁶ cm/s] |
| --- | --- | --- | --- | --- | --- |
| CCN1CCC[C@@H](Nc2nnc(-c3c(CO)cc4c(c3O)CCO4)n(C)c2=O)C1 (atropisomer, axis not shown) [Example 5, 3-[4-Hydroxy-6-(hydroxymethyl)-2,3-dihydrobenzofuran-5-yl]-4-methyl-6-[[(3R)-1-ethyl-3-piperidyl]amino]-1,2,4-triazin-5-one] | 0.139 | – | – | – | – |
| CCN1CCC[C@@H](Nc2nnc(-c3c(C)cc4c(c3O)CCO4)n(CC)c2=O)C1 (atropisomer, axis not shown) [Example 2b, P-4-ethyl-6-[[(3R)-1-ethyl-3-piperidyl]amino]-3-(4-hydroxy-6-methyl-2,3-dihydrobenzofuran-5-yl)-1,2,4-triazin-5-one] | – | 8 | 3.7 | – | – |
| CCc1cc2c(c(O)c1-c1nnc(N[C@@H]3CCCN(CCO)C3)c(=O)n1C)CCO2 (atropisomer, axis not shown) [Example 8b, P-3-(6-ethyl-4-hydroxy-2,3-dihydrobenzofuran-5-yl)-6-[[(3R)-1-(2-hydroxyethyl)-3-piperidyl]amino]-4-methyl-1,2,4-triazin-5-one] | 0.016 | 1 | 0.9 | 0.064 | – |
| CCn1c(-c2c(C)cc3c(c2O)CCO3)nnc(N[C@@H]2CCCN(CCO)C2)c1=O (atropisomer, axis not shown) [Example 9b, (P or M)-4-ethyl-6-[[(3R)-1-(2-hydroxyethyl)-3-piperidyl]amino]-3-(4-hydroxy-6-methyl-2,3-dihydrobenzofuran-5-yl)-1,2,4-triazin-5-one] | 0.118 | 2 | 0.8 | 0.204 | – |
| CCN1CCC[C@@H](Nc2nnc(-c3c(C)cc4c(c3O)CCO4)n(C)c2=O)C1 (single isomer, unassigned) [Example 3b] | – | 10 | 5.3 | – | – |
| CCN1CCC[C@@H](Nc2nnc(-c3c(COC)cc4c(c3O)CCO4)n(C)c2=O)C1 (single isomer, unassigned) [Example 6a, (M or P)-3-[4-Hydroxy-6-(methoxymethyl)-2,3-dihydrobenzofuran-5-yl]-4-methyl-6-[[(3R)-1-ethyl-3-piperidyl]amino]-1,2,4-triazin-5-one] | > 1 | – | – | – | – |
| CCN1CCC[C@@H](Nc2nnc(-c3c(COC)cc4c(c3O)CCO4)n(C)c2=O)C1 (single isomer, unassigned) [Example 6b] | 0.015 | 1 | 1.1 | 0.029 | – |
| CCc1cc2c(c(O)c1-c1nnc(N[C@@H]3CCCN(CC)C3)c(=O)n1C)CCO2 (single isomer, unassigned) [Example 1b] | – | 11 | 4.5 | – | – |
| CCN1CCCC(Nc2nnc(-c3c(COC)cc4c(c3O)CCC4)n(C)c2=O)C1 [Example 7b, P-6-[[(3R)-1-ethyl-3-piperidyl]amino]-3-[4-hydroxy-6-(methoxymethyl)indan-5-yl]-4-methyl-1,2,4-triazin-5-one] | – | 12 | 5.1 | – | – |
| CCN1CCC[C@@H](Nc2nnc(-c3ccc4c(c3O)CCO4)n(C)c2=O)C1 [Reference Example RE-A, 6-[[(3R)-1-Ethyl-3-piperidyl]amino]-3-(4-hydroxy-2,3-dihydrobenzofuran-5-yl)-4-methyl-1,2,4-triazin-5-one, reference compound] | – | – | – | – | 24.9 |
| CCN1CCC[C@@H](Nc2nnc(-c3c(CO)cc4c(c3O)CCO4)n(C)c2=O)C1 (single isomer, unassigned) [Example 5b, (P or M)-3-[4-Hydroxy-6-(hydroxymethyl)-2,3-dihydrobenzofuran-5-yl]-4-methyl-6-[[(3R)-1-ethyl-3-piperidyl]amino]-1,2,4-triazin-5-one] | 0.966 | – | – | – | – |
| CCN1CCC[C@@H](Nc2nnc(-c3c(C)cc(C(F)(F)F)cc3O)n(C)c2=O)C1 (atropisomer, axis not shown) [Reference Example RE-B, 6-[[(3R)-1-Ethyl-3-piperidyl]amino]-3-[2-hydroxy-6-methyl-4-(trifluoromethyl)phenyl]-4-methyl-1,2,4-triazin-5-one, reference compound] | – | 7.6 | 5.6 | – | – |
| CCN1CCC[C@@H](Nc2nnc(-c3c(CO)cc4c(c3O)CCO4)n(C)c2=O)C1 (atropisomer, axis not shown) [Example 5a, (M or P)-3-[4-Hydroxy-6-(hydroxymethyl)-2,3-dihydrobenzofuran-5-yl]-4-methyl-6-[[(3R)-1-ethyl-3-piperidyl]amino]-1,2,4-triazin-5-one] | 0.084 | – | – | 0.103 | – |
